pKd: −log10 of the molar value. “Also recorded” adds a separate entry of the source.
Columns and labels:
[1] = test system: glmS ribozyme; experiment: high-throughput fluorescence screen with bimolecular glmS ribozyme (fluorescein/cy3-labeled substrate); format: biochemical, S. aureus; settings: for Fl21 h/Flg h: high-throughput fluorescence screen, fluorescence ratio
[2] = test system: glmS ribozyme; experiment: activity by electrophoretic in-line probing (gel electrophoresis methods); format: binding
[3] = molecular target: glmS ribozyme from B. cereus; settings: read-out: apparent dissociation constant (KD); cited from earlier work
[4] = molecular target: homologous ribozyme from Bacillus subtilis; settings: Bacillus subtilis glmS ribozyme; read-out: apparent dissociation constant (KD); cited from earlier work
[5] = test system: glmS ribozyme from B. cereus; experiment: glmS ribozyme self-cleavage assay (5'-32P-labeled 200-nucleotide construct, PAGE); format: biochemical, Bacillus cereus; settings: for ribozyme activation / self-cleavage (in words): FIG. 2b: 1 mM effector, 30 minutes, FIG. 2c: 100 μM, 50 mM HEPES pH 7.5; for ribozyme self-cleavage activity as fraction of the activity exhibited by GlcN6P: FIG. 2c, each at 100 μM
Description: Differences from GlcN6P can be seen by comparing the structures to GlcN6P. b) Yields of ribozyme cleavage assays using a 200-nucleotide glmS RNA construct incubated with GlcN6P (1) or with various compounds as indicated. 5′ ^32P-labeled precursor (Pre) RNAs were incubated for 30 minutes in the presence of 1 mM effector as noted for each lane. […] Rate constants for the remaining compounds are estimated to be less than 0.001 min^−1.
The molecular recognition characteristics of the glmS ribozyme was found by determining the effects of GlcN6P and various GlcN6P analogs on the self-cleavage activity of a 200-nucleotide glmS ribozyme construct from B. cereus (FIG. 1). KD values for each ligand were determined by plotting ribozyme rate constants versus ligand concentrations (Experimental Section). […] The amine group of the ligand is also known to be essential for ribozyme function (Winkler 2004; McCarthy 2005). […] Therefore, a series of analogs were tested (FIG. 2) to probe the importance of structural conformation of GlcN6P and of individual functional groups on the pyranose ring.
The glmS ribozyme from B. cereus (FIG. 1a) was generated by in vitro transcription as described previously, (Roth 2006) 5′-^32P-radiolabeled, (Lim 2006) and purified by PAGE. Rate constants were established using methods and reaction conditions similar to those described previously (Roth 2006) with the exception that reaction mixtures contained 50 mM HEPES buffer (pH 7.5 at 23° C.) in place of Tris-HCl buffer. Ligand concentrations and incubation times used are defined for each assay. Ribozyme activity was established by quantitating the amounts of cleaved and uncleaved RNAs using a Typhoon imager (Amersham Biosciences).

[6] = test system: glmS ribozymes; settings: cited from earlier work

Structure (SMILES): CC(=O)N[C@H]1C(O)O[C@H](COP(=O)(O)O)[C@@H](O)[C@@H]1O (stereo partly drawn) [AcNGln 6P, N-acetyl-D-glucosamine 6-phosphate]
- Fl21 h/Flg h [1]: 2.28
- Activity by electrophoretic in-line probing [2]: Weakly

Structure (SMILES): N[C@H]1C(O)O[C@H](COP(=O)(O)O)[C@@H](O)[C@@H]1O (stereo partly shown) [Compound 1, glucosamine-6-phosphate, reference compound]
- Fl21 h/Flg h [1]: 3.36
- increase of fluorescence intensity of fluoroscein ([1]; ~160 μM glucosamine-6-phosphate, minimum of 10 hours incubation): ~4 fold
- Activity by electrophoretic in-line probing [2]: Yes
- pKd [3]: ~3.70
- pKd [4]: ~3.70

Structure (SMILES): N[C@@H](C=O)[C@@H](O)[C@@H](O)[C@H](O)COP(=O)(O)O [Compound 2, 2-amino-2-deoxy-D-galactose 6-phosphate]
- ribozyme activation / self-cleavage (in words) [5]: does not induce activity
- Fl21 h/Flg h [1]: 1.69

Structure (SMILES): N[C@@H](CO)[C@@H](O)[C@H](O)[C@H](O)COP(=O)(O)O [Compound 3, 2-amino-2-deoxy-D-glucitol-6-phosphate]
- ribozyme activation / self-cleavage (in words) [5]: no detectable activity
- Fl21 h/Flg h [1]: 0.80
- Activity by electrophoretic in-line probing [2]: No

Structure (SMILES): NC1C(O)O[C@H](COP(=O)(O)S)C(O)[C@@H]1O (stereo partly drawn) [Compound 4, 2-amino-2-deoxy-D-glucose 6-thiophosphate]
- reduction of the rate constant of ribozyme cleavage compared to 1 [5]: approximately two orders of magnitude
- Fl21 h/Flg h [1]: 1.11
- Activity by electrophoretic in-line probing [2]: No

Structure (SMILES): CO[C@@H]1O[C@H](COP(=O)(O)O)[C@@H](O)[C@H](O)[C@H]1N [Compound 5, methyl 2-amino-2-deoxy-β-D-glucose 6-phosphate]
- ribozyme activation / self-cleavage (in words) [5]: precludes analog binding
- Fl21 h/Flg h [1]: 1.02
- Activity by electrophoretic in-line probing [2]: No

Structure (SMILES): CO[C@H]1O[C@H](COP(=O)(O)O)[C@@H](O)[C@H](O)[C@H]1N [Compound 6, methyl 2-amino-2-deoxy-α-D-glucose 6-phosphate]
- ribozyme activation / self-cleavage (in words) [5]: precludes analog binding
- Fl21 h/Flg h [1]: 1.07
- Activity by electrophoretic in-line probing [2]: No

Structure (SMILES): NC1O[C@H](COP(=O)(O)O)[C@@H](O)[C@H](O)[C@H]1O (stereo partly shown) [Compound 7, 1-amino-1-deoxyglucose 6-phosphate]
- ribozyme activation / self-cleavage (in words) [5]: does not support ribozyme cleavage; also recorded: lowest amount of cleavage
- Fl21 h/Flg h [1]: 1.00
- Activity by electrophoretic in-line probing [2]: No

Structure (SMILES): N[C@H]1CO[C@H](COP(=O)(O)O)[C@@H](O)[C@@H]1O [Compound 8, 2-amino-1,5-anhydro-2-deoxyglucitol 6-phosphate]
- ribozyme self-cleavage activity as fraction of the activity exhibited by GlcN6P [5]: 1/70
- Fl21 h/Flg h [1]: 2.52
- Activity by electrophoretic in-line probing [2]: Yes
- melting point: 185 to 187 °C (dec.)

Structure (SMILES): CNC1C(O)O[C@H](COP(=O)(O)O)C(O)[C@@H]1O (stereo partly shown) [Compound 9, 2-methylamino-2-deoxyglucose 6-phosphate]
- ribozyme activation / self-cleavage (in words) [5]: only a modest reduction in efficiency compared to GlcN6P
- Fl21 h/Flg h [1]: 3.49
- Activity by electrophoretic in-line probing [2]: Yes
- melting point: 185 to 187 °C (dec.)

Structure (SMILES): N[C@H](C=O)[C@@H](O)[C@H](O)[C@H](O)COP(=O)(O)O [Compound 12, 2-amino-2-deoxy-D-mannose 6-phosphate]
- ribozyme self-cleavage activity as fraction of the activity exhibited by GlcN6P [5]: 1/35
- Fl21 h/Flg h [1]: 2.89
- Activity by electrophoretic in-line probing [2]: Yes

Structure (SMILES): NC1C(O)O[C@H](COP(=O)(O)O)C(O)[C@H]1O (stereo partly shown) [Compound 13, 2-amino-2-deoxyallose 6-phosphate]
- ribozyme activation / self-cleavage (in words) [5]: activity that is similar to GlcN6P

Structure (SMILES): N[C@@H]1[C@@H](O)[C@H](O)[C@@H](COP(=O)(O)O)O[C@@H]1O [Gln6P com, reference compound]
- Fl21 h/Flg h [1]: 2.24
- Activity by electrophoretic in-line probing [2]: Yes

Structure (SMILES): Cl.N[C@H]1C(O)O[C@H](CO)[C@@H](O)[C@@H]1O (stereo partly drawn) [Gln com, D-(+)-glucosamine hydrochloride, reference compound]
- Fl21 h/Flg h [1]: 1.87
- Activity by electrophoretic in-line probing [2]: Yes
- GlcN6P bound by the ribozyme more tightly than glucosamine [6]: > 1000 fold
- loss of ligand affinity (in words) ([6]; removal of the phosphate group): an even greater loss of ligand affinity

Structure (SMILES): C[N+](C)(C)C1C(O)O[C@H](COP(=O)(O)O)C(O)[C@@H]1O (stereo partly shown) [Me3N-Gln 6P, 2-(trimethylammonio)-2-deoxyglucose 6-phosphate]
- melting point: 185 to 187 °C (dec.)

Structure (SMILES): C[N+](C)(C)[C@@H](C=O)[C@@H](O)[C@H](O)[C@H](O)CO [Me3N-Gln, 2-deoxy-2-(trimethylammonio)-D-glucose]
- Fl21 h/Flg h [1]: 1.17
- Activity by electrophoretic in-line probing [2]: No

Structure (SMILES): NCCO [ethanolamine]
- ribozyme activation (in words) [6]: orders of magnitude less effective than GlcN6P

Structure (SMILES): N[C@H]1C(O)O[C@H](COS(=O)(=O)O)[C@@H](O)[C@@H]1O (stereo partly shown) [glucosamine-6-sulphate]
- concentration needed to induce ribozyme activation to the same extent as GlcN6P, relative to GlcN6P [6]: ~100 fold

Structure (SMILES): O=C[C@H](O)[C@@H](O)[C@H](O)[C@H](O)COP(=O)(O)O [glucose-6-phosphate]
- ribozyme activation (in words) [6]: completely fails to trigger ribozyme action

Structure (SMILES): NC(CO)CO [serinol]
- ribozyme activation (in words) [6]: orders of magnitude less effective than GlcN6P

From patent publication US20100324123A1, “GLMS RIBOSWITCHES, STRUCTURE-BASED COMPOUND DESIGN WITH GLMS RIBOSWITCHES, AND METHODS AND COMPOSITIONS FOR USE OF AND WITH GLMS RIBOSWITCHES” (Yale University, priority 2006, published 2010)
